Measured values: US12650423B2, “Pharmaceutical compositions and use thereof” (HADASIT MEDICAL RESEARCH SERVICES & DEVELOPMENT LTD., priority 2020, dated 2026)

System: mouse DTH model
Assay: Mouse delayed-type hypersensitivity (DTH) model, oxazalone ear swelling
Assay type: in vivo
Conditions: BALB/c mice, oxazalone challenge of right ear, 24 hr after challenge; histology FIGS. 15C-15D
Method: Mouse DTH in-vivo assay is an inflammatory model which is known as type IV hypersensitivity reactions and is mediated by soluble antigens primarily involving CD4+ or CD8+ T cell activation. This assay is characterized by the release of mediators from activated T cells. The T cells then activate local endothelial cells and recruit macrophages, which results in local inflammation and swelling. In this assay, female BALB/c mice were sensitized on the shaved abdominal skin with 100 μl of 2% oxazalone dissolved in acetone/olive oil [4:1 (vol/vol)] applied topically (day 0). DTH sensitivity was elicited 6 days later by challenging the mice with 20 μl of 0.5% oxazalone in acetone/olive oil, 10 μl administered topically to each side of the right ear. Control group was subcutaneously injected with Dexamethasone 100 μg/mouse in a total volume of 200 μl. 24 hr after challenge the swelling of the right ear was measured using a Micrometer, digital caliper (Mitutoyo Corp, Tokyo, Japan). The swelling of the left ear was served as control and the readout of this experiment model was the delta between the right and left ear (FIG. 15E).

OC1(c2ccc(Cl)c(C(F)(F)F)c2)CCN(CCCC(c2ccc(F)cc2)c2ccc(F)cc2)CC1 [Penfluridol]
effect in mouse DTH model: pro-inflammatory effect
